Results from patent US6800641B2, “Antipsychotic aminomethyl derivatives of 7,8-dihydro-3H-6,9-dioxa-2,3-diaza-cyclopenta[a]naphthalene” (Wyeth, priority 2001, dated 2004).
Where a name gives a salt, the structure may show the parent alone.

Molecular target: T1, dopamine D2 receptor (Rattus norvegicus, UniProt P61169)
T1 construct: from tissue; host or cells: rat striatal brain tissue homogenate
T1 sequence (P61169 whole entry): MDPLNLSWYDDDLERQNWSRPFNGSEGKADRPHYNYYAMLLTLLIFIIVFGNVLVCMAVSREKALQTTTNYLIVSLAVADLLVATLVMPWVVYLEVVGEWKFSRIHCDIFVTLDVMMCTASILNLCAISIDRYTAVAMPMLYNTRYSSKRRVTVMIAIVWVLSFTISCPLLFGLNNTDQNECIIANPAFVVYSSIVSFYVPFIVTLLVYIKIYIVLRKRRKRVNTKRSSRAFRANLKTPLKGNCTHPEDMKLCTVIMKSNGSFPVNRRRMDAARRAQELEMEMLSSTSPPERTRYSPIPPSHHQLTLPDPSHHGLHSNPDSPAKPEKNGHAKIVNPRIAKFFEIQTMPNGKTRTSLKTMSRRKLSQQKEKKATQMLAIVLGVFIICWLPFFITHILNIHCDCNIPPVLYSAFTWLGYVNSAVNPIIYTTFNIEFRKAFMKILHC
Assay: Dopamine D2 receptor affinity, 3H-quinpirole binding in homogenized rat striatal brain tissue
Method: Affinity for the dopamine D2 receptor was established by a modification of the standard experimental test procedure of Seemen and Schaus, European Journal of Pharmacology 203: 105-109, 1991, wherein homogenized rat striatal brain tissue is incubated with ^3H-quinpirole and various concentrations of test compound, filtered and washed and counted in a Betaplate scintillation counter.
`c1ccc(CNC[C@H]2COc3ccc4[nH]ncc4c3O2)cc1` [Example 1] gave an IC50 of 0.45 nM. With `c1ccc(CCCCNC[C@H]2COc3ccc4[nH]ncc4c3O2)cc1` [Example 2] the IC50 was 0.29 nM. In the case of `c1cc2[nH]ncc2c2c1OCC(CNCC13CC4CC(CC(C4)C1)C3)O2` (centres unmarked) [Example 3, Adamantan-1-ylmethyl-(-7,8-dihydro-3H-6,9-dioxa-2,3-diaza-cyclopenta[a]naphthalen-8-ylmethyl)-amine], the IC50 is reported as 0.1 nM. In the case of `c1ccc2c(CCCNCC3COc4ccc5[nH]ncc5c4O3)c[nH]c2c1` (centres unmarked) [Example 4, (7,8-Dihydro-3H-6,9-dioxa-2,3-diaza-cyclopenta[a]naphthalen-8-ylmethyl)-[3-(1H-indol-3-yl)-propyl]-amine], the IC50 is reported as 0.17 nM. Compound `c1ccc2c(c1)CCN(CC1COc3ccc4[nH]ncc4c3O1)C2` (centres unmarked) [Example 5, 8-(3,4-Dihydro-1H-isoquinolin-2-ylmethyl)-7,8-dihydro-3H-6,9-dioxa-2,3-diaza-cyclopenta[a]naphthalene] has an IC50 of 1.1 nM. In the case of `C1=C(c2c[nH]c3ccccc23)CCN(CC2COc3ccc4[nH]ncc4c3O2)C1` (centres unmarked) [Example 6, 8-[4-(1H-indol-3-yl)-3,6-dihydro-2H-pyridin-1-ylmethyl]-7,8-dihydro-3H-6,9-dioxa-2,3-diaza-cyclopenta[a]naphthalene], the IC50 is reported as 4.5 nM. With `Fc1ccc2[nH]cc(CC3CCN(CC4COc5ccc6[nH]ncc6c5O4)CC3)c2c1` (centres unmarked) [Example 7, 8-[4-(5-Fluoro-1H-indol-3-ylmethyl)-piperidin-1-ylmethyl]-7,8-dihydro-3H-6,9-dioxa-2,3-diaza-cyclopenta[a]naphthalene] the IC50 was 3.4 nM.

Test system: not given
Assay: not given
For `c1ccc(CNC[C@H]2COc3ccc4[nH]ncc4c3O2)cc1` (as salt: fumarate) (hydrate or solvate) [Example 1], the melting point was 194 to 195.7 °C. `c1ccc(CCCCNC[C@H]2COc3ccc4[nH]ncc4c3O2)cc1` (as salt: hydrochloride) (hydrate or solvate) [Example 2] showed a melting point of 104 °C. With `c1cc2[nH]ncc2c2c1OCC(CNCC13CC4CC(CC(C4)C1)C3)O2` (centres unmarked) (as salt: hydrochloride) [Example 3, Adamantan-1-ylmethyl-(-7,8-dihydro-3H-6,9-dioxa-2,3-diaza-cyclopenta[a]naphthalen-8-ylmethyl)-amine] the melting point was > 300 °C. Compound `c1ccc2c(c1)CCN(CC1COc3ccc4[nH]ncc4c3O1)C2` (centres unmarked) (as salt: hydrochloride) [Example 5, 8-(3,4-Dihydro-1H-isoquinolin-2-ylmethyl)-7,8-dihydro-3H-6,9-dioxa-2,3-diaza-cyclopenta[a]naphthalene] has a melting point of 170 to 172 °C. `C1=C(c2c[nH]c3ccccc23)CCN(CC2COc3ccc4[nH]ncc4c3O2)C1` (centres unmarked) (as salt: hydrochloride) [Example 6, 8-[4-(1H-indol-3-yl)-3,6-dihydro-2H-pyridin-1-ylmethyl]-7,8-dihydro-3H-6,9-dioxa-2,3-diaza-cyclopenta[a]naphthalene] gave a melting point of 190 °C. Compound `Fc1ccc2[nH]cc(CC3CCN(CC4COc5ccc6[nH]ncc6c5O4)CC3)c2c1` (centres unmarked) (as salt: hydrochloride) [Example 7, 8-[4-(5-Fluoro-1H-indol-3-ylmethyl)-piperidin-1-ylmethyl]-7,8-dihydro-3H-6,9-dioxa-2,3-diaza-cyclopenta[a]naphthalene] has a melting point of 165 °C. With `c1ccc2c(CCCNCC3COc4ccc5[nH]ncc5c4O3)c[nH]c2c1` (centres unmarked) (as salt: oxalate) [Example 4, (7,8-Dihydro-3H-6,9-dioxa-2,3-diaza-cyclopenta[a]naphthalen-8-ylmethyl)-[3-(1H-indol-3-yl)-propyl]-amine] the melting point was 138 to 142 °C.
